# Values joined by “and” are separate entries in the source; they are usually repeats but may differ in a detail not shown here. Equal entries are not always repeated.
# Tests used:
# rabbit eyes = rabbit eyes [Ref. 13]; cited from earlier work
# [1] = test system: methicillin-resistant Staphylococcus aureus; experiment: Bactericidal activity of NCT without and with heparin (CFU counts); format: cell-based
# Swiss mice = experiment: Intraperitoneal injection in Swiss mice; format: in vivo; conditions: 1% NCT i.p., a further study
# [2] = test system: Escherichia coli, ATCC 11229; experiment: Bactericidal activity of NCT with heparin in human whole blood; format: cell-based; conditions: 37° C.
# Method: FIG. 11 presents a plot of bactericidal activity of 1% NCT with 125 IE/mL heparin in human blood against Escherichia coli (ATCC 11229) at pH 7.1 and 37° C. Mean values±standard error of the mean of three independent experiments. P<0.01 between NCT and control samples.
# Bacteria (Staphylococcus aureus, ATCC 25923 and Escherichia coli, ATCC 11229) grown in tryptic soy broth overnight were washed twice in saline and suspended in human whole blood containing 125 IE/mL heparin. Different volumes of a saline solution of NCT sodium salt were added to the suspension so that the test samples contained 10%, 25%, 50%, and 75% blood. In addition, 100% blood plus 125 IE/mL heparin was tested at which NCT was directly dissolved in blood. The final NCT concentration after mixing blood and NCT solutions was 1% in all samples. Controls contained 100% blood plus 125 IE/mL heparin and 10%, 25%, 50% and 75% blood, respectively, in saline, plus 125 IE/mL heparin without NCT. All of the solutions were incubated at 37° C. and pH 7.36-7.44 (the pH of blood). After 1, 3, 5, 10, 15, 30, 45 and 60 minutes, aliquots of 100 μL were removed and diluted tenfold or 100-fold in 0.6% sodium thiosulfate solution to inactivate the NCT. Aliquots (50 μL) of these dilutions were spread on tryptic soy agar plates. The plates were incubated at 37° C. and colony forming units of bacteria were counted after 24 and 48 hours. […]
# citrate blood = experiment: Activated partial thromboplastin time (aPTT), Pathromtin SL test; format: biochemical, human; conditions: for aPTT / aPTT (sec): Example 6, single volunteer; for Activated partial thromboplastin time (aPTT) / Activated partial thromboplastin time (aPTT), mean value: Example 7; for Activated partial thromboplastin time (aPTT): individual subjects 1-11; for Activated partial thromboplastin time (aPTT), mean value: mean of 11 subjects
# Method: Whole blood was taken from volunteers and enriched with trisodium citrate (0.3 mL of a 0.106 molar solution per 3 mL whole blood) (S-Monovette®, Sarstedt, Nümbrecht, Germany). Routine coagulation tests were performed on the following samples:
# The following commercial coagulation tests were performed according to the prescription of the manufacturer: prothrombin time (PT) was determined using Thromborel® S test (Dade Behring GmbH, Marburg, Germany); activated partial thromboplastin time (aPTT) was determined using Pathromtin* SL test (Dade Behring GmbH, Marburg, Germany); and thrombin time (TT) was determined using BC Thrombin Reagent test (Dade Behring GmbH, Marburg, Germany).
# Whole blood was taken from a single volunteer and enriched with trisodium citrate (0.3 mL of a 0.106 molar solution per 3 mL whole blood) (S-Monovette®, Sarstedt, Nümbrecht, Germany). Portions of 1.8 mL citrate blood were mixed with 0.2 mL NCT in 0.9% saline. The following final (after dilution in blood) NCT concentrations were tested separately: 1% (55 mM); 0.5% (27.5 mM); 0.25% (13.75 mM); 0.1% (5.5 mM); 0.05% (2.75 mM); 0.025% (1.375 mM); and 0.01% (0.55 mM). A control without NCT was performed in parallel. The following commercial coagulation tests were performed according to the prescription of the manufacturer: prothrombin time (PT) was determined using Thromborel® S test (Dade Behring GmbH, Marburg, Germany), activated partial thromboplastin time (aPTT) was determined using Pathromtin* SL test (Dade Behring GmbH, Marburg, Germany); thrombin time (TT) was determined using BC Thrombin Reagent test (Dade Behring GmbH, Marburg, Germany); and fibrinogen was determined using Multifibren* U test (Dade Behring GmbH, Marburg, Germany).
# Whole blood was taken from 11 volunteers and enriched with trisodium citrate (0.3 mL of a 0.106 molar solution per 3 mL whole blood) (S-Monovette®, Sarstedt, Nümbrecht, Germany). Commercial coagulation tests (as described in Example 6) were performed with the following samples: […]
# Streptococcus pyogenes = experiment: Bactericidal activity of NCT without and with heparin (CFU counts); format: cell-based
# Method: FIG. 3 presents a plot of bactericidal activity of 1% NCT without and with 125 IE/mL heparin against Streptococcus pyogenes at pH 7.1 and 37° C. Mean values±standard error of the mean of three independent experiments. P>0.05 between NCT without and NCT with heparin.
# NCT was dissolved in 0.1 M phosphate buffer containing either 125 IE/mL heparin or no heparin. The final NCT concentration was 1%. Various bacterial species were grown in tryptic soy broth overnight, were washed twice in saline and then suspended in the NCT and NCT/heparin solutions. The species were Staphylococcus aureus (ATCC 25923), Escherichia coli (ATCC 11229), Streptococcus pyogenes, Staphylococcus epidermidis, Pseudomonas aeruginosa, Proteus mirabilis, and methicillin-resistant Staphylococcus aureus. Controls were performed with the foregoing bacterial species suspended in 0.1 M phosphate buffer without additives and in 0.1 M phosphate buffer containing 125 IE/mL heparin. All of the solutions were incubated at 37° C. and pH 7.1. After 1, 3, 5, 8, and 10 minutes, aliquots of 100 μL were removed and diluted 10-fold or 100-fold in 0.6% sodium thiosulfate solution to inactivate the NCT. Aliquots (50 μL) of these dilutions were spread on tryptic soy agar plates. The plates were incubated at 37° C. and colony forming units of bacteria were counted after 24 and 48 hours. […]
# [3] = 0.1% NCT, virtually identical experiments
# [4] = 1% NCT, 125 IE/mL heparin, pH 7.1, 37° C., 1-10 min
smiles,measurement,setting,value
"O=S(=O)(O)CCNCl [NCT, N-chlorotaurine]",tolerability in topical and localized applications,rabbit eyes,relatively safe and well-tolerated
same,influence of heparin on the killing of bacteria,[1]; [3],no statistically significant influence of heparin on the killing of bacteria
same,killing activity of NCT with vs without heparin,[1]; [4],no difference in the killing activity
same,tolerated intraperitoneal injection,Swiss mice,tolerated up to one mL 1% NCT
same,bactericidal activity in blood,[2]; 1% NCT dissolved in 100% blood plus 125 IE/mL heparin,no significant bactericidal activity was detected
same,bactericidal activity in blood,"[2]; 1% NCT in 10%, 25%, 50% and 75% blood plus 125 IE/mL heparin",demonstrated bactericidal activity
same,activated partial thromboplastin time,"citrate blood; Example 5, 1% NCT final concentration in citrate blood",above the test limits
same,aPTT,citrate blood; 0.01% (0.55 mM) NCT final,30.6 s
same,aPTT,citrate blood; 0.025% (1.375 mM) NCT final,37.7 s
same,aPTT,citrate blood; 0.05% (2.75 mM) NCT final,71.3 s
same,aPTT,citrate blood; 0.1% (5.5 mM) NCT final,371.4 s
same,aPTT (sec),citrate blood; 0.25% (13.75 mM) NCT final,>limit
same,aPTT (sec),citrate blood; 0.5% (27.5 mM) NCT final,>limit
same,aPTT (sec),citrate blood; 1% (55 mM) NCT final,>limit
same,Activated partial thromboplastin time (aPTT),citrate blood; 0.01% NCT,39 sec (2×) and 41 sec and 32 sec and 47 sec and 37 sec (2×) and 35 sec and 40 sec and 36 sec and 31 sec
same,"Activated partial thromboplastin time (aPTT), mean value",citrate blood; 0.01% NCT,37.6 s
same,Activated partial thromboplastin time (aPTT),citrate blood; 0.025% NCT,93 sec and 113 sec and 49 sec and 238 sec and 142 sec and 129 sec and 91 sec (2×) and 167 sec and 70 sec and 71 sec
same,"Activated partial thromboplastin time (aPTT), mean value",citrate blood; 0.025% NCT,114.0 s
same,influence of heparin on the killing of bacteria,Streptococcus pyogenes; [3],no statistically significant influence of heparin on the killing of bacteria
same,killing activity of NCT with vs without heparin,Streptococcus pyogenes; [4],no difference in the killing activity

# From patent publication US20110091570A1, “Compositions and Devices for Antisepsis and Anticoagulation” (priority 2008, published 2011)
